Among the data in patent US20260055108A1, “TRIAZINE COMPOUNDS AND USES THEREOF” (HUTCHMED LIMITED, priority 2022, published 2026) are IC50 and GI50 values, retold here.

Test [1] deals with Recombinant human Menin protein (2-610) / MLL polypeptide binding (Homo sapiens (Human), UniProt O00255). In words: Menin and MLL protein binding at a molecular level (fluorescence polarization method). As to conditions: inhibition of Menin / MLL polypeptide binding. The method, boiled down:
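Binding of recombinant human Menin (2-610) to 6-FAM-labelled MLL peptide measured by fluorescence polarization (ex 480/em 535 nm) in Tris/NaCl/TCEP buffer, pH 7.5, 2% DMSO. Compound preincubated with Menin 30 min at room temperature, then peptide added for 30 min in the dark. Tested at 1.000 down to 0.0005 μM final.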
(In general: Fluorescence polarisation rises when a labelled molecule tumbles more slowly, as on binding a larger partner.)

The test system of test [2] is MV-4-11 cells (human acute myelogenous leukemia cell line carrying MLL-AF4 mutation). In words: Cell proliferation assay, MV-4-11 (CellTiter-Glo). The class given is cell-based. Particulars: Homo sapiens, MV4-11, 72 h. The method, boiled down: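 MV-4-11 cells (3000/well, IMDM with 10% HIFBS and 50 μM β-mercaptoethanol) exposed to compound at 1.100–0.001 μM final, 0.1% DMSO, for 3 days at 37°C. Viability read by CellTiter-Glo luminescence on day 0 and day 3, normalised to day-0 and untreated wells.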

The mark [3] stands for this setting: MV-4-11 cells, 3 days treatment, CellTiter-Glo, read-out: GI50.

Where a name gives a salt, the structure may show the parent alone. Read-outs that look alike come from different tables or passages of the source.

Chain of Recombinant human Menin protein (2-610) / MLL polypeptide binding (O00255 2-610): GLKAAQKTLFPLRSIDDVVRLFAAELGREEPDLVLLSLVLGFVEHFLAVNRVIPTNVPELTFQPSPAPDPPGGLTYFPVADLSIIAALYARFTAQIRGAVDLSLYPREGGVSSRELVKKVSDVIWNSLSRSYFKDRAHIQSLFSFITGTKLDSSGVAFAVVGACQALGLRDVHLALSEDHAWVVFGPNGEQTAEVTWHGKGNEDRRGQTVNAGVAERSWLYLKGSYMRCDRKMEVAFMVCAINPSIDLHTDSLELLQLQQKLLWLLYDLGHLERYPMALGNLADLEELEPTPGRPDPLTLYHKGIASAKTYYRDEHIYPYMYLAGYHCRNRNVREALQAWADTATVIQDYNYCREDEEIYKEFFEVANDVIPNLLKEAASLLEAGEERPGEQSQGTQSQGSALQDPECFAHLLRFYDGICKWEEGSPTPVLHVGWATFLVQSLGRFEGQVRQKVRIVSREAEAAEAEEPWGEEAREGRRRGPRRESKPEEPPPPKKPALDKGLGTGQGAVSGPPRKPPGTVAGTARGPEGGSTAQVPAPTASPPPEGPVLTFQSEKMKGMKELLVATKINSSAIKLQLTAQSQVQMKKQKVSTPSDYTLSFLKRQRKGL

The term IC50 denotes the midpoint of a concentration-inhibition curve. The GI50 is the concentration that inhibits growth by half. Take `CCN(C(=O)c1cc(F)ccc1Oc1nncnc1N1CC(C2(N(C)Cc3cc(C#N)n(C)n3)CC2)C1)C(C)C` [Compound 146, 2-((5-(3-(1-(((5-cyano-1-methyl-1H-pyrazol-3-yl)methyl)(methyl)amino)cyclopropyl)azetidin-1-yl)-1,2,4-triazin-6-yl)oxy)-N-ethyl-5-fluoro-N-isopropylbenzamide]: the IC50 in test [1] is over 1000 nM. Moreover, in test [2] (setting [3]), the 50% growth inhibitory concentration (GI50) is 986 nM.

`CCN(C(=O)c1cc(F)ccc1Oc1nncnc1N1CC2(CCN(CC3CCN(CC(O)C(N)=O)CC3)CC2)C1)C(C)C` (stereo not drawn) [Compound 147, 2-((5-(7-((1-(3-amino-2-hydroxy-3-oxopropyl)piperidin-4-yl)methyl)-2,7-diazaspiro[3.5]nonan-2-yl)-1,2,4-triazin-6-yl)oxy)-N-ethyl-5-fluoro-N-isopropylbenzamide]: the IC50 in test [1] worked out at 116 nM. Further, the GI50 in test [2] (setting [3]) worked out at 1390 nM.

Turning to `CCN(C(=O)c1cc(F)ccc1Oc1nncnc1N1CC2(CCN(Cc3ccc4c(cc(C#N)n4CC(O)C(N)=O)c3C)CC2)C1)C(C)C` (stereo not drawn) [Compound 148], the IC50 in test [1] was determined as 5.3 nM. In addition, the GI50 in test [2] (setting [3]) worked out at 221 nM.

`CCN(C(=O)c1cc(F)ccc1Oc1nncnc1N1CC2(CCN(CC3CCN(c4ccc(C(N)=O)cn4)CC3)CC2)C1)C(C)C` [Compound 149, 6-(4-((2-(6-(2-(ethyl(isopropyl)carbamoyl)-4-fluorophenoxy)-1,2,4-triazin-5-yl)-2,7-diazaspiro[3.5]nonan-7-yl)methyl)piperidin-1-yl)nicotinamide formate]: the concentration for half-maximal inhibition (IC50) in test [1] was 2.9 nM. In test [2], this molecule came in with a concentration for 50% growth inhibition (GI50) of 6 nM.

On to `CCN(C(=O)c1cc(F)ccc1Oc1nncnc1N1CC2(CCN(CC3CCN(c4ccncc4C(N)=O)CC3)CC2)C1)C(C)C` [Compound 150, 4-(4-((2-(6-(2-(ethyl(isopropyl)carbamoyl)-4-fluorophenoxy)-1,2,4-triazin-5-yl)-2,7-diazaspiro[3.5]nonan-7-yl)methyl)piperidin-1-yl)nicotinamide], for which the IC50 in test [1] amounted to 41.5 nM. In addition, the concentration for 50% growth inhibition (GI50) in test [2] (setting [3]) stood at 66 nM.

On to `CCN(C(=O)c1cc(F)ccc1Oc1nncnc1N1CC2(CCN(CC3CCN(c4ccnc(C(N)=O)c4)CC3)CC2)C1)C(C)C` [Compound 151], for which the half-maximal inhibitory concentration (IC50) in test [1] worked out at 1.5 nM. Further, the 50% growth inhibitory concentration (GI50) in test [2] (setting [3]) was 3 nM.

Turning to `CCN(C(=O)c1cc(F)ccc1Oc1nncnc1N1CC2(CCN(Cc3ccc4c(cc(C(=O)NC)n4CCO)c3C)CC2)C1)C(C)C` [Compound 152, 5-((2-(6-(2-(ethyl(isopropyl)carbamoyl)-4-fluorophenoxy)-1,2,4-triazin-5-yl)-2,7-diazaspiro[3.5]nonan-7-yl)methyl)-1-(2-hydroxyethyl)-N,4-dimethyl-1H-indole-2-carboxamide], the IC50 in test [1] amounted to 357 nM. In addition, in test [2] (setting [3]), the 50% growth inhibitory concentration (GI50) is 369 nM.

For `CCN(C(=O)c1cc(F)ccc1Oc1nncnc1N1CC(C2(N(C)Cc3ccc4c(cc(C#N)n4CCO)c3C)CC2)C1)C(C)C` [Compound 153], the half-inhibitory concentration (IC50) in test [1] came out at 5.2 nM. Also, in test [2] (setting [3]), the 50% growth inhibitory concentration (GI50) came out at 18 nM.

As to `CCN(C(=O)c1cc(F)ccc1Oc1nncnc1N1CC2(CCN(Cc3ccc4c(cc(C#N)n4CCO)c3C)CC2)C1)C(C)C` [Compound 154], the half-maximal inhibitory concentration (IC50) in test [1] was 0.8 nM. The GI50 in test [2] (setting [3]) worked out at 2 nM.

Consider `Cc1c(CN2CCC3(CC2)CN(c2ncnnc2Oc2ccc(F)cc2)C3)ccc2c1cc(C#N)n2CCO` [Compound 155], for which, in test [1], the IC50 amounted to 292 nM. For the same molecule, in test [2] (setting [3]), the 50% growth inhibitory concentration (GI50) turned out to be 276 nM.

For the molecule `CCN(C(=O)c1cc(F)ccc1Oc1nnc(NC)nc1N1CC2(CCN(Cc3ccc4c(cc(C#N)n4CCO)c3C)CC2)C1)C(C)C` [Compound 156], the half-inhibitory concentration (IC50) in test [1] came to 43.7 nM. For the same molecule, in test [2] (setting [3]), the 50% growth inhibitory concentration (GI50) worked out at 48 nM.

Turning to `COc1cc(F)ccc1Oc1nncnc1N1CC2(CCN(Cc3ccc4c(cc(C#N)n4CCO)c3C)CC2)C1` [Compound 157], in test [1], the half-inhibitory concentration (IC50) is 305 nM. In addition, in test [2] (setting [3]), the GI50 worked out at 252 nM.

For `CCN(C(=O)c1cc(F)ccc1Oc1nncnc1N1CC2(CCN(Cc3ccc4c(cc(C(N)=O)n4CCO)c3C)CC2)C1)C(C)C` [Compound 158], in test [1], the IC50 was found to be 212 nM. Besides, the GI50 in test [2] (setting [3]) was determined as 131 nM.

Turning to `CCN(C(=O)c1cc(F)ccc1Oc1nncnc1N1CC2(CCN(Cc3ccc4c(cc(C(=O)O)n4CCO)c3C)CC2)C1)C(C)C` [Compound 159], the concentration for half-maximal inhibition (IC50) in test [1] came to 450 nM. In test [2] (setting [3]), the GI50 was determined as 642 nM.

Consider `CCN(C(=O)c1cc(F)ccc1Oc1nnc(C)nc1N1CC2(CCN(Cc3ccc4c(cc(C#N)n4CCO)c3C)CC2)C1)C(C)C` [Compound 160], for which the half-inhibitory concentration (IC50) in test [1] worked out at 87.7 nM. Moreover, the GI50 in test [2] (setting [3]) came out at 54 nM.

Regarding `Cc1nc(-c2cc(F)ccc2Oc2nncnc2N2CC3(CCN(Cc4ccc5c(cc(C#N)n5CCO)c4C)CC3)C2)n(C(C)C)n1` [Compound 161], in test [1], the half-inhibitory concentration (IC50) was 18.7 nM. Further, the GI50 in test [2] (setting [3]) was found to be 22 nM.

With `CCN(C(=O)c1cc(F)ccc1Oc1nncnc1N1CC2(CCN(Cc3ccc4c(c3)cc(C#N)n4CCO)CC2)C1)C(C)C` [Compound 162], in test [1], the IC50 was determined as 13.9 nM. The GI50 in test [2] (setting [3]) was determined as 30 nM.

Regarding `CCN(C(=O)c1cc(F)ccc1Oc1nncnc1N1CC(C2(N(CCO)Cc3ccc4[nH]c(C#N)cc4c3C)CC2)C1)C(C)C` [Compound 163], in test [1], the IC50 came to 4.9 nM. In addition, in test [2] (setting [3]), the 50% growth inhibitory concentration (GI50) was 49 nM.

With `CCN(C(=O)c1cc(F)ccc1Oc1nncnc1N1CC2(CCN(CC3CCN(c4cccc(N)n4)CC3)CC2)C1)C(C)C` [Compound 164, 2-((5-(7-((1-(6-aminopyridin-2-yl)piperidin-4-yl)methyl)-2,7-diazaspiro[3.5]nonan-2-yl)-1,2,4-triazin-6-yl)oxy)-N-ethyl-5-fluoro-N-isopropylbenzamide], in test [1], the IC50 was found to be 4.6 nM. The GI50 in test [2] (setting [3]) came to 27 nM.

On to `CCN(C(=O)c1cc(F)ccc1Oc1nncnc1N1CC2(CCN(CC3CCN(c4ccncn4)CC3)CC2)C1)C(C)C` [Compound 165, N-ethyl-5-fluoro-N-isopropyl-2-((5-(7-((1-(pyrimidin-4-yl)piperidin-4-yl)methyl)-2,7-diazaspiro[3.5]nonan-2-yl)-1,2,4-triazin-6-yl)oxy)benzamide], for which, in test [1], the IC50 amounted to 5.3 nM. Further, in test [2] (setting [3]), the 50% growth inhibitory concentration (GI50) was 13 nM.

Regarding `CCN(C(=O)c1cc(F)ccc1Oc1nncnc1N1CC2(CCN(CC3CCN(c4cccnn4)CC3)CC2)C1)C(C)C` [Compound 166], the IC50 in test [1] was determined as 2.6 nM. Also, the GI50 in test [2] (setting [3]) was 7 nM.

For the molecule `CCN(C(=O)c1cc(F)ccc1Oc1nncnc1N1CC2(CCN(CC3CCN(c4ccnnc4)CC3)CC2)C1)C(C)C` [Compound 167], in test [1], the IC50 was 14.9 nM. Moreover, the GI50 in test [2] (setting [3]) was found to be 18 nM.

For `CCN(C(=O)c1cc(F)ccc1Oc1nncnc1N1CC2(CCN(CC3CCN(c4cccc(=O)n4C)CC3)CC2)C1)C(C)C` [Compound 168], the concentration for half-maximal inhibition (IC50) in test [1] was over 200 nM. Also, in test [2] (setting [3]), the GI50 turned out to be 133 nM.

Take `CCN(C(=O)c1cc(F)ccc1Oc1nncnc1N1CC2(CCN(CC3CCN(C(=O)c4cnn5cccnc45)CC3)CC2)C1)C(C)C` [Compound 169, N-ethyl-5-fluoro-N-isopropyl-2-((5-(7-((1-(pyrazolo[1,5-a]pyrimidine-3-carbonyl)piperidin-4-yl)methy)-2,7-diazaspiro[3.5]nonan-2-yl)-1,2,4-triazin-6-yl)oxy)benzamide]: the IC50 in test [1] was 166 nM. Besides, the GI50 in test [2] (setting [3]) was found to be 108 nM.

Turning to `CCN(C(=O)c1cc(F)ccc1Oc1nncnc1N1CC2(CCN(CC3CCN(C(=O)OC)CC3)CC2)C1)C(C)C` [Compound 170, methyl 4-((2-(6-(2-(ethyl(isopropyl)carbamoyl)-4-fluorophenoxy)-1,2,4-triazin-5-yl)-2,7-diazaspiro[3.5]nonan-7-yl)methyl)piperidine-1-carboxylate], in test [1], the IC50 stood at 34.4 nM. The molecule further registered a GI50 in test [2] of 49 nM.

On to `CCN(C(=O)c1cc(F)ccc1Oc1nncnc1N1CC2(CCN(C(C)C3CCN(c4cc(OC)c(OC)nn4)CC3)CC2)C1)C(C)C` (stereo not drawn) [Compound 171, 2-((5-(7-(1-(1-(5,6-dimethoxypyridazin-3-yl)piperidin-4-yl)ethyl)-2,7-diazaspiro[3.5]nonan-2-yl)-1,2,4-triazin-6-yl)oxy)-N-ethyl-5-fluoro-N-isopropylbenzamide], for which, in test [1], the IC50 is 41.3 nM. The GI50 in test [2] (setting [3]) amounted to 56 nM.

`CCN(C(=O)c1cc(F)ccc1Oc1nncnc1N1CC2(CCN(C(=O)C3CCN(c4ccccn4)CC3)CC2)C1)C(C)C` [Compound 172, N-ethyl-5-fluoro-N-isopropyl-2-((5-(7-(1-(pyridin-2-yl)piperidine-4-carbonyl)-2,7-diazaspiro[3.5]nonan-2-yl)-1,2,4-triazin-6-yl)oxy)benzamide]: the IC50 in test [1] is over 200 nM. Moreover, in test [2] (setting [3]), the GI50 stood at 76 nM.

As to `CCN(C(=O)c1cc(F)ccc1Oc1nncnc1N1CC2(CCC(CN3CCN(c4ccccn4)CC3)CC2)C1)C(C)C` [Compound 173, N-ethyl-5-fluoro-N-isopropyl-2-((5-(7-((4-(pyridin-2-yl)piperazin-1-yl)methyl)-2-azaspiro[3.5]nonan-2-yl)-1,2,4-triazin-6-yl)oxy)benzamide], in test [1], the 50% inhibitory concentration (IC50) amounted to 750 nM. Also, growth in test [2] was halved (GI50) at 292 nM.

With `[2H]C(c1ccc2[nH]c(C#N)cc2c1C)N1CCC2(CC1)CN(c1ncnnc1Oc1ccc(F)cc1C(=O)N(CC)C(C)C)C2` (stereo not drawn) [Compound 175, 2-((5-(7-((2-cyano-4-methyl-1H-indol-5-yl)methyl-d)-2,7-diazaspiro[3.5]nonan-2-yl)-1,2,4-triazin-6-yl)oxy)-N-ethyl-5-fluoro-N-isopropylbenzamide], in test [1], the IC50 was found to be 1.5 nM. Further, the GI50 in test [2] (setting [3]) was 4 nM.

Take `[2H]C(c1ccc2oc(C#N)cc2c1)N1CCC2(CC1)CN(c1ncnnc1Oc1ccc(F)cc1C(=O)N(CC)C(C)C)C2` (stereo not drawn) [Compound 176]: the half-inhibitory concentration (IC50) in test [1] worked out at 6.1 nM. The GI50 in test [2] (setting [3]) was found to be 26 nM.
